Measured values taken from BindingDB's records for doi:10.1021/bi050490d (Case Western Reserve University, 2005).

Biological target: Kappa-type opioid receptor (Homo sapiens, UniProt P41145)
Sequence (P41145 whole entry): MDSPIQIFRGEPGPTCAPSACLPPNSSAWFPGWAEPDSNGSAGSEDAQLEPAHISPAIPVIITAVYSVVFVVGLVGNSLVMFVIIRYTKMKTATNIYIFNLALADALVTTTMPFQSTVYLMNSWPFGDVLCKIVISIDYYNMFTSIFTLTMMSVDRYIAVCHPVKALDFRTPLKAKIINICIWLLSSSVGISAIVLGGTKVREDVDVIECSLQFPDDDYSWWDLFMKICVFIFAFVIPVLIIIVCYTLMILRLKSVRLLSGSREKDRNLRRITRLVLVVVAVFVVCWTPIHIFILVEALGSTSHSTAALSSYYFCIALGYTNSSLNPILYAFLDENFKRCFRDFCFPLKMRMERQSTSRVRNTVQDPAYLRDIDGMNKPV

`CC[C@H](C)[C@H](NC(=O)[C@H](CCCNC(=N)N)NC(=O)[C@H](CCCNC(=N)N)NC(=O)[C@H](CC(C)C)NC(=O)[C@H](Cc1ccccc1)NC(=O)CNC(=O)CNC(=O)[C@@H](N)Cc1ccc(O)cc1)C(=O)N[C@@H](CCCNC(=N)N)C(=O)N1CCC[C@H]1C(=O)N[C@@H](CCCCN)C(=O)N[C@@H](CC(C)C)C(=O)N[C@@H](CCCCN)C(=O)O` [Dynorphin A (1-13)] gave a Ki of 343 nM.
